According to EP1832576A1, “4-Biarylyl-1-phenolyzetidin-2-ones” (Microbia Inc., priority 2003, dated 2005):

System: cholesterol absorption from the intestine
Assay: In Vivo Assay of Hypolipidemic Agents using the Rat Cholesterol Absorption Model
Parameters: species or system Female Sprague-Dawley rats
Conditions: po; for inhibition at 1 mg/kg: 3H levels in serum three hours after 3H-cholesterol, versus vehicle only control
Outline: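 Fasted female Sprague-Dawley rats (150–250 g, 4–6/group) received compound orally in olive oil or vehicle. Thirty minutes later they were given 3–5 µCi ^3H-cholesterol orally in olive oil, and serum ^3H was counted at 3 h. Percent inhibition versus vehicle control is at a fixed dose; ED50 is the dose giving half-maximal effect on serum ^3H.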

Row | Compound | inhibition at 1 mg/kg (Table 2, perorally) [%] | further results
1 | O=C1[C@H](CC[C@H](O)c2ccc(F)cc2)[C@@H](c2ccc(-c3ccc(P(=O)(O)O)cc3)cc2O)N1c1ccccc1 [Example 127, (4'-{(2S,3R)-3-[(3S)-3-(4-Fluorophenyl)-3-hydroxypropyl]-4-oxo-1-phenylazetidin-2-yl}-3'-hydroxybiphenyl-4-yl)phosphonic acid] | 58 | –
2 | O=C1[C@H](CCC(O)c2ccc(F)cc2)[C@@H](c2ccc(-c3cccc(S(=O)(=O)O)c3)cc2O)N1c1ccccc1 (stereo partly drawn) [Example 53, Sodium 4'-{(2S,3R)-3-[(3S/R)-3-(4-fluorophenyl)-3-hydroxypropyl]-4-oxo-1-phenylazetidin-2-yl}-3'-hydroxybiphenyl-3-sulfonate] | 78 | –
3 | O=C1[C@H](CC[C@H](O)c2ccc(F)cc2)[C@@H](c2ccc(-c3ccc(O)cc3)cc2O)N1c1ccccc1 [Example 125, (3R,4S)-4-(3,4'-dihydroxybiphenyl-4-yl)-3-[(3S)-3-(4-fluorophenyl)-3-hydroxypropyl]-1-phenylazetidin-2-one] | 64 | –
4 | O=C1[C@H](CC[C@H](O)c2ccc(F)cc2)[C@@H](c2ccc(-c3cc(O)ccc3Br)cc2)N1c1ccc(F)cc1 [Example 19, (3R,4S)-4-(2'-bromo-5'-hydroxybiphenyl-4-yl)-1-(4-fluorophenyl)-3-[(3S)-3-(4-fluorophenyl)-3-hydroxypropyl]azetidin-2-one] | – | inhibition at 1 mg/kg (Table 1, perorally): 66%
5 | O=C1[C@H](CC[C@H](O)c2ccc(F)cc2)[C@@H](c2ccc(-c3cccc(O)c3)s2)N1c1ccccc1 [Example 50, (3R,4S)-3-[(3S)-3-(4-Fluorophenyl)-3-hydroxypropyl]-4-[5-(3-hydroxyphenyl)-2-thienyl]-1-phenylazetidin-2-one] | 27 | –
6 | O=C1[C@H](CC[C@H](O)c2ccc(F)cc2)[C@@H](c2ccc(-c3cccc([C@@H]4O[C@H](CO)[C@@H](O)[C@H](O)[C@H]4O)c3)cc2O)N1c1ccccc1 [Example 65, (1S)-1,5-anhydro-1-(4'-{(2S,3R)-3-[(3S)-3-(4-fluorophenyl)-3-hydroxypropyl]-4-oxo-1-phenylazetidin-2-yl}-3'-hydroxybiphenyl-3-yl)-D-glucitol] | – | inhibition at 0.1 mg/kg (Table 2, footnote 5, perorally, 0.1 mg/kg): 60%
7 | O=C1[C@H](CC[C@H](O)c2ccc(F)cc2)[C@@H](c2ccc(-c3cccc([C@H](O)[C@@H](O)[C@@H](O)[C@H](O)[C@@H](O)CO)c3)cc2O)N1c1ccccc1 [Example 75, (6S)-6-C-(4'-{(2S,3R)-3-[(3S)-3-(4-Fluorophenyl)-3-hydroxypropyl]-4-oxo-1-phenylazetidin-2-yl}-3'-hydroxybiphenyl-3-yl)-D-glucitol] | 68 | –
8 | CO[C@H]1O[C@H](COc2cccc(-c3ccc([C@@H]4[C@@H](CC[C@H](O)c5ccc(F)cc5)C(=O)N4c4ccc(F)cc4)cc3)c2)[C@@H](O)[C@H](O)[C@H]1O [Example 77, methyl 6-O-(4'-{(2S,3R)-1-(4-fluorophenyl)-3-[(3S)-3-(4-fluorophenyl)-3-hydroxypropyl]-4-oxoazetidin-2-yl}biphenyl-3-yl)-α-D-glucopyranoside] | – | inhibition at 1 mg/kg (Table 1, perorally): 70%
